Literature values as cited in US20090047259A1, “Methods of Using the Calcineurin A Variant CnA-beta 1” (priority 2005, published 2009).

Test system: calcineurin
Details: mdx mice

**Q.** For `CC(=O)OCC(=O)[C@@]12N=C(C)O[C@@H]1C[C@H]1[C@@H]3CCC4=CC(=O)C=C[C@]4(C)[C@H]3[C@@H](O)C[C@@]12C` [deflazacort], which “NFAT-dependent genes, including utrophin” value is on record?
**A.** induced

**Q.** What about the calcineurin activity of the same compound?
**A.** activated calcineurin

**Q.** And the myocyte viability?
**A.** restored myocyte viability
